The subject of one experiment is coronary blood flow. Nature of the experiment: Coronary blood flow in anesthetized dogs. In kind it is in vivo, adult mongrel dogs. To be noted: maximal change as ratio to 10 μg/kg nitroglycerin. The protocol: (§1) Adult mongrel dogs were thoracotomized under anesthesia with α-chloralose and the circumflex branch of the left coronary artery was […]; a pair of ultrasonic crystals were attached to the tunica extima for measuring the diameter of the coronary artery whereas an electromagnetic flow probe was attached to the peripheral side to measure the coronary blood flow. Nitroglycerin, dipyridamole and each test compound were administered intravenously for comparison. Each test compound was dissolved in dimethylformamide and diluted sequentially with polyethylene glycol 200 and water to give respective proportions of 20, 50 and 30% (v/v). The results are shown in Table 3, in which the maximal changes in the diameter of the coronary artery and the coronary blood flow are expressed in terms of the ratio to the respective changes caused by 10 μg/kg of nitroglycerin.

The test system of another experiment is coronary artery diameter. Nature of the experiment: Coronary Artery Diameter Increasing Action in anesthetized dogs. In kind it is in vivo, adult mongrel dogs. To be noted: for Coronary artery diameter (relative to nitroglycerin): maximal change as ratio to 10 μg/kg nitroglycerin. The protocol: as §1
The next experiment concerns the target T1, PDE type III (Canis lupus familiaris, UniProt A0A8I3NYE0).
T1 construct: PDE was purified from the aorta in a dog; from tissue; host or cells: dog aorta
T1 sequence (A0A8I3NYE0 1-1135): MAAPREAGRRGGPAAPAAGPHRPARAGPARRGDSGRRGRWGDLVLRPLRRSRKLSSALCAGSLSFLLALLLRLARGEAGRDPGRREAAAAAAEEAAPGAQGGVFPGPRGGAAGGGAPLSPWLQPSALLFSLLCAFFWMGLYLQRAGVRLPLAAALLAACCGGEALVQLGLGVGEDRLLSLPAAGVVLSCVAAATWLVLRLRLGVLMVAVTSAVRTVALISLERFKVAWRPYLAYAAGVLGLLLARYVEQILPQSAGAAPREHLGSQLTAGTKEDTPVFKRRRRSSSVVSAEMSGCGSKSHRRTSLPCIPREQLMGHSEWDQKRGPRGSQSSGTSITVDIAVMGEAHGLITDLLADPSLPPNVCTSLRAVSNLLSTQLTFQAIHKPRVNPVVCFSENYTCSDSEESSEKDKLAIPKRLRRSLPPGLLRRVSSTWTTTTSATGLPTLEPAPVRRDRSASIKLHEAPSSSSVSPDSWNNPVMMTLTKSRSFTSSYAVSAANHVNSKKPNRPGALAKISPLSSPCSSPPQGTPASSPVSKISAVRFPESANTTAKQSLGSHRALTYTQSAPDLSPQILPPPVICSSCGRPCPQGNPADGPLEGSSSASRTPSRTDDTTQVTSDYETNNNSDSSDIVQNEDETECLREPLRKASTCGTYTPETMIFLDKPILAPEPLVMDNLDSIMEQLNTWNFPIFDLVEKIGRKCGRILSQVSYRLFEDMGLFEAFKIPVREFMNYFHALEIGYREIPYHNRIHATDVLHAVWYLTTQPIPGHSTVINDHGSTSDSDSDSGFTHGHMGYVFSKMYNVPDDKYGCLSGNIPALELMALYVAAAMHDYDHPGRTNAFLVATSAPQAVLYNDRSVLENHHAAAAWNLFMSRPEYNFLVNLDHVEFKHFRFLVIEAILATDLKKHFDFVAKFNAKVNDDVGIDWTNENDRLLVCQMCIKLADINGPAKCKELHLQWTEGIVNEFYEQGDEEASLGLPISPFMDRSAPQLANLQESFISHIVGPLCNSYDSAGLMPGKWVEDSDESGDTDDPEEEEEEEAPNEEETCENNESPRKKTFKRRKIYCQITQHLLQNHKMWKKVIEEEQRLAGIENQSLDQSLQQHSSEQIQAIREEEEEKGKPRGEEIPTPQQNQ
Briefly: PDE Inhibiting Activity, type III. In kind it is biochemical, dog (canine aorta). The protocol: (§2) On the basis of the method of Lugnier et al. (Biochem. Pharmacol., 35, 1743-1751, 1986), PDE was purified from the aorta in a dog. The canine aorta was minced and homogenized with a Waring Blender and a glass homogenizer in six volumes of a Tris-HCl buffer solution (pH 7.5, 20 mM) containing 2 mM magnesium acetate, 5 mM ethylenediaminetetraacetic acid (EDTA), 100 μg/mL of phenylmethylsulforyl fluoride and 15 mM 2-mercaptoethanol (2-ME), and centrifuged at 1200 xg for 30 min. The supernatant was separated and salted out with ammonium sulfate which was added to 45% saturation. The resulting precipitated fraction was resuspended in a Tris-HCl buffer solution (pH 7.5, 20 mM) containing 2 mM magnesium acetate and 1 mM 2-ME, dialyzed overnight and applied to a DEAE-trisacryl column (DEAE […] M:IBF). By elution with a sodium chloride gradient (0-0.4 M), PDE types V and III were separated from the other isozymes. The supernatant fraction of 45% saturated ammonium sulfate was further mixed with ammonium sulfate to 65% saturation and salted out. The resulting precipitated fraction was similarly applied to the DEAE-trisacryl column and eluted by a sodium chloride gradient (0-0.4 M) so as to separate PDE type I.
(§3) The thus obtained PDE types V, III and I were measured for their activity in accordance with the method of Thompson et al. (Adv. Cyclic Nucleotide Res., 10, 69-72, 1979) and the method of Wells et al. (Biochim. Biophys. Acta, 384, 430-443, 1975). Specifically, a purified PDE sample was added to 50 mM Tris-HCl buffer solution (pH 7.5) containing 1 μM of substrate cGMP or cAMP (containing tritium-labelled cGMP or cAMP), 1 mM EGTA and 2 mM magnesium acetate. For PDE activity measurement, enzymatically produced 5' GMP or 5' AMP was further hydrolyzed into guanosine or adenosine with snake venom and separated from the substrate by means of an ion-exchange resin (Dowex 1-X2), followed by measuring with a scintillation counter. The activity of each test compound was determined as a percentage of the DPE activity measured when it was added as a dimethyl sulfoxide solution (DMSO) and its IC50 (50% inhibition concentration) was calculated by the probit method. The final concentration of DMSO was adjusted to be no more than 2% in consideration of the effect on PDE activity.

The subject of another experiment is PDE type I. Nature of the experiment: PDE Inhibiting Activity, type I. In kind it is biochemical, dog (canine aorta). To be noted: PDE type I from canine aorta, 1 μM substrate, pH 7.5; read-out: Inhibition Activity IC50, Type I. The protocol:
as §2, §3

The next experiment addresses T2, PDE type V (Canis lupus familiaris, UniProt O77746).
T2 construct: PDE was purified from the aorta in a dog; from tissue; host or cells: dog aorta
Nature of the experiment: PDE Inhibiting Activity, type V (cGMP-PDE). In kind it is biochemical, dog (canine aorta). Conditions: PDE type V from canine aorta, 1 μM substrate, pH 7.5; read-out: Inhibition Activity IC50, Type V. On the procedure: as §2
The thus obtained PDE types V, III and I were measured for their activity in accordance with the method of Thompson et al. (Adv. Cyclic Nucleotide Res., 10, 69-72, 1979) and the method of Wells et al. (Biochim. Biophys. Acta, 384, 430-443, 1975). Specifically, a purified PDE sample was added to 50 mM Tris-HCl buffer solution (pH 7.5) containing 1 μM of substrate cGMP or cAMP (containing tritium-labelled cGMP or cAMP), 1 mM EGTA and 2 mM magnesium acetate. […] The activity of each test compound was determined as a percentage of the DPE activity measured when it was added as a dimethyl sulfoxide solution (DMSO) and its IC50 (50% inhibition concentration) was calculated by the probit method. […]

The subject of experiment [1] is vascular smooth muscle cells isolated from aortic media. To be noted: Garg et al. 1989; Nakaki et al. 1990; cited from earlier work.
Experiment [2] deals with pulmonary arterial pressure. Briefly: Pulmonary Arterial Pressure Lowering Action in anesthetized dogs. To be noted: for inhibition in vivo at 0.3 mg/kg: 0.3 mg/kg intravenous, maximal percent decrease. The experiment is classed as in vivo, adult mongrel dogs. The protocol:
(§4) Adult mongrel dogs were anesthetized by intramuscular administration of 20 mg/kg of ketamine and intravenous administration of 20 mL/kg of physiological saline containing 5 mg/mL of α-chloralose; under artificial respiration, the aortic pressure was measured with a catheter inserted into the femoral artery and the pulmonary arterial pressure with a Swan-Ganz catheter inserted into the pulmonary artery. Anesthesia was maintained by intravenous administration of physiological saline containing 5 mg/mL of α-chloralose at a rate of 5 mL/kg per hour. Comparison was made between nitroglycerin, nifedipine and test compounds which were administered intravenously at doses of 0.01-1 mg/kg. Each test compound was dissolved in dimethylformamide (DMF) and sequentially diluted with polyethylene glycol 200 and water to give respective proportions of 20, 50 and 30% (v/v) and administrated by injection into the right femoral vein in a volume of 0.3 mL/kg. The results are shown in Table 2 below, in which maximal percent decreases in the pulmonary arterial pressure and aortic pressure are listed to show the effectiveness of each test compound in lowering the pulmonary arterial pressure and the systemic blood pressure, respectively.

Another experiment deals with systemic blood pressure. Briefly: Systemic blood (aortic) pressure lowering in anesthetized dogs. In kind it is in vivo, adult mongrel dogs. Conditions: Canis lupus familiaris, iv, read-out: Reduction in systemic blood pressure; for inhibition in vivo at 0.3 mg/kg: 0.3 mg/kg intravenous, anesthetized dogs, maximal percent decrease. On the procedure:
as §4

Where [3] appears, read: PDE type III from canine aorta, 1 μM substrate, pH 7.5, read-out: Inhibition Activity IC50, Type III.
[4] abbreviates: Canis lupus familiaris, iv, anesthetized dogs, read-out: Reduction in pulmonary arterial pressure.

Counter-ions that a name gives are not always drawn. Like-named read-outs stand apart in the source and are kept apart here.

The IC50 is the concentration that gives 50% inhibition.

For `OCCN(CCO)c1nc(N2CCCCC2)c2nc(N(CCO)CCO)nc(N3CCCCC3)c2n1` [Dipyridamole, dipyridamole, reference compound], the “Coronary blood flow (relative to nitroglycerin)” value in the experiment with coronary blood flow (0.03 mg/kg intravenous) turned out to be 2.66. Moreover, in the experiment with coronary artery diameter (0.03 mg/kg intravenous), the “Coronary artery diameter (relative to nitroglycerin)” value came to 0.17. In addition, the “coronary artery diameter versus coronary blood flow (in words)” value with coronary artery diameter (intravenous, anesthetized dogs) was “increased more of the coronary blood flow than the coronary artery diameter”.
On to `CCCOC(=O)COc1cc2c(=O)c(Cc3cccnc3)cn3c4ccc(Br)cc4c(c1)c23` [Example 7, 10-bromo-2-n-propoxycarbonylmethyloxy-5-(3-pyridylmethyl)-4H-pyrido [3,2,1-jk]carbazole-4-one], for which the IC50 was greater than 30 µM on PDE type III (setting [3]), greater than 30 µM in the experiment on PDE type I and 0.0043 µM at PDE type V.
For `Nc1nc2c(nc(Br)n2[C@@H]2O[C@@H]3COP(=O)(O)O[C@H]3[C@H]2O)c(=O)[nH]1` [Example 8-bromo-cGMP, 8-bromo-cGMP], the “proliferation of cultured vascular smooth muscle cells (in words)” value in experiment [1] was “suppressed”.
As to `O=C(COc1cc2c(=O)c(Cc3cccnc3)cn3c4ccc(Br)cc4c(c1)c23)OC1CCCCC1` [Example 15], the figures for the concentration for half-maximal inhibition (IC50) at PDE type III (setting [3]), in the experiment with PDE type I and at PDE type V were 15 µM, greater than 30 µM and 0.045 µM, respectively.
Turning to `CCNC(=O)COc1cc2c(=O)c(Cc3cccnc3)cn3c4cc(Br)ccc4c(c1)c23` [Example 109, 9-bromo-2-(N-ethylcarbamoylmethyloxy)-5-(3-pyridylmethyl)-4H-pyrido [3,2,1-jk]carbazole-4-one], the figures for the inhibition in vivo at 0.3 mg/kg (in experiment [2] (setting [4]); in the experiment with systemic blood pressure) were 19% and 11%, respectively. Besides, the IC50 against PDE type III was 14 µM; in the experiment on PDE type I, greater than 30 µM.
As to `O=c1c(Cc2cccnc2)cn2c3cc(Br)ccc3c3cc(OCCCO)cc1c32` [Example 110, 9-bromo-2-(3-hydroxypropyloxy)-5-(3-pyridylmethyl)-4H-pyrido [3,2,1-jk]carbazole-4-one], the inhibition in vivo at 0.3 mg/kg came out at 23% in experiment [2] (setting [4]) and 7% with systemic blood pressure. Also, the IC50 on PDE type III (setting [3]) is 10 µM; in the experiment on PDE type I it was greater than 30 µM.
Take `O=c1c(Cc2cccnc2)cn2c3ccccc3c3cc(O)cc1c32` [Example 155]: the concentration for half-maximal inhibition (IC50) on PDE type III (setting [3]) came out at 7.3 µM; in the experiment with PDE type I, 48 µM. In the experiment with coronary blood flow (1 mg/kg intravenous), the “Coronary blood flow (relative to nitroglycerin)” value turned out to be 0.79. Further, in the experiment with coronary artery diameter (1 mg/kg intravenous), the “Coronary artery diameter (relative to nitroglycerin)” value is given as 1.47.
With `O=c1ccn2c3ccc(Cl)cc3c3cccc1c32` [Example 193, 10-chloro-4H-pyrido[3,2,1-jk]carbazole-4-one], the inhibition in vivo at 0.3 mg/kg came out at 16% in experiment [2] (setting [4]) and 1% in the experiment on systemic blood pressure. Moreover, the IC50 is 6.9 µM at PDE type III (setting [3]) and greater than 100 µM in the experiment on PDE type I. Moreover, the “Coronary blood flow (relative to nitroglycerin)” value in the experiment on coronary blood flow (1 mg/kg intravenous) worked out at 1.40. For the same molecule, the “Coronary artery diameter (relative to nitroglycerin)” value in the experiment on coronary artery diameter (1 mg/kg intravenous) worked out at 1.44.
`O=c1ccn2c3ccc(Cl)cc3c3cc(Cl)cc1c32` [Example 264, 2,10-dichlor-4H-pyrido[3,2,1-jk]carbazole-4-one]: the figures for the IC50 on PDE type III (setting [3]), in the experiment with PDE type I and at PDE type V were greater than 30 µM, greater than 30 µM and 0.08 µM, respectively.
With `O=c1c(Cc2cccnc2)cn2c3cc(Br)ccc3c3cc(OCCCO)cc1c32` [Example 278, 9-bromo-2-(3-hydroxyoropyloxy)-5-(3-pyridylmethyl)-4H-pyrido[3,2,1-jk]carbazole-4-one hydrochloride], the “Coronary blood flow (relative to nitroglycerin)” value in the experiment on coronary blood flow (1 mg/kg intravenous) turned out to be 0.04. Further, the “Coronary artery diameter (relative to nitroglycerin)” value in the experiment with coronary artery diameter (1 mg/kg intravenous) came out at 1.50.
Take `O=[N+]([O-])OCC(CO[N+](=O)[O-])O[N+](=O)[O-]` [Nitroglycerin, nitroglycerin, reference compound]: the inhibition in vivo at 0.01 mg/kg in experiment [2] (Canis lupus familiaris, iv, read-out: Reduction in pulmonary arterial pressure) was determined as 19%; with systemic blood pressure it was 30%. Moreover, in experiment [2] (intravenous, anesthetized dogs), the “pulmonary arterial versus systemic blood pressure lowering (in words)” value was “lowered the systemic blood pressure by greater degrees than the pulmonary arterial pressure”. The “proliferation of cultured vascular smooth muscle cells (in words)” value in experiment [1] is reported as “suppressed”.

These data come from patent US6197768A, “Pyridocarbazole derivatives having cgmp-pde inhibitory activity” (Mochida Pharmaceutical Co., Ltd., priority 1996, dated 2001).
